Results taken from patent publication US6743446B2, “Methods for stabilizing biologically active agents encapsulated in biodegradable controlled-release polymers” (The Ohio State University Research Foundation, priority 1999, dated 2004).
Structures can show the parent of a compound that is named as a salt.

Tests used:
[1] = VCR and VBL stability and release in PLGA microspheres by HPLC; type: physicochemical
Protocol: All other reagents and solvents were of analytical grade or purer and purchased from commercial suppliers. Microspheres Preparation Microspheres were prepared by a standard oil-in-oil emulsion-solvent extraction method (17). […] The resulting solution or suspension was added drop-wise to 25 ml of oil (95% cottonseed oil and 5% Span 85 emulsifier) stirred at 500 rpm and room temperature. After 2.5 h of microsphere hardening. 40 ml of petroleum ether (bp: 50 to 100° C.) were added to the emulsion to extract CAN. The emulsion was stirred for additional 15 min, the particles were collected by filtration, and washed 3 times with petroleum ether. The hardened microspheres were flash-frozen with liquid nitrogen and lyophilized with a Labconco Freezone 6 system for 1 day.
The HPLC system consisted of the following: a 510 pump, a 717 Plus autosampler, and a 486 UV detector (waters, Milford, Mass.). […] The mobile phase was composed of aqueous solution of sodium phosphate (10 mM) and methanol 40:60 (v/v) (pH 7.0). For UV detection, the wavelength was set to 298 nm.
Drug release from microspheres was carried out in PBS (127 mM NaCl, 3 mM KCl, 8 mM Na2HPO4, 1 mM KH2PO4, pH 7.4) containing Tween 80 (0.02% w/w/) (PBST) at 37° C. under perfect sink conditions. […] Microspheres were weighed and dissolved in a 50% (v/v) ACN water solution. The precipitated polymer and salts were spun down by brief centrifugation. An aliquot of the supernatant containing drug was removed and analyzed by HPLC.

[2] = pH measurement of saturated basic salts in water; type: physicochemical; conditions: excess basic salt suspended in water, 37° C., 7 days
Protocol: The suspension was then incubated at 37° C. for 7 days. The pH of the supernatant was determined with a Corning 430 pH meter (Corning Inc., NY).

[3] = pH of saturated basic salt suspension after addition of 1 N HCl; type: physicochemical; conditions: acid added to the saturated suspension with excess salt, 37° C., 3 days
Source text: The difference of the neutralization effect from the salts is also reflected in the different water contents of their PLGA devices.

BSA [4] = target: T1, BSA (Bos taurus, UniProt P02769); assay: BSA release and aggregation in PLGA millicylinders incubated in PBST at 37° C.; type: physicochemical, bovine
T1 construct: purchased Sigma Chemical Co. (St. Louis, Mo.) A-3059
Protocol: A solvent extrusion method similar to that used previously by our group for intraocular implants was used to prepare the PLGA cylinders with a diameter on the millimeter scale, which we term millicylinders. Briefly, a uniform suspension of sieved protein powder (<90 μm) with or without basic salt in 50% (w/w) acetone-PLGA 50/50 solution was loaded in a syringe and extruded into a silicone tubing (I.D. 0.8 mm) at about 0.1 ml/min. The solvent extruded suspension was dried at room temperature for 24 h and then dried in a vacuum oven at 45° C. for another 24 h before testing. The protein loading was calculated as the percentage of amount of BSA versus the total weight of mixture (i.e., protein, polymer, and salt).
Release of protein was carried out in PBST (which consists of PBS (7.74 mM Na2HPO4, 2.26 mM NaH2O4, 137 mM NaCl, and 3 mM KCl, pH 7.4), and 0.02% w/v Tween® 80) at 37° C. under perfect sink conditions. Millicylinders (10×0.8 mm, 5-10 mg or microspheres (about 20 mg) were placed in I ml of the release medium and the medium was replaced at each time point. The protein content was determined by using Coornassie plus protein assay reagent, which is also compatible with denaturing agents (e.g., 6 M urea) and reducing agents (e.g., 10 mM DTT).
Protein stability was assessed by the percentage of water insoluble non-covalent BSA aggregates generated within the implants versus the initial encapsulated protein. Protein stability within PLGA implants was analyzed as follows: First, millicylinders with a length of 1 cm were incubated under 80% and 96% relative humidity (RH) at 37° C. for 21 days. Then, the polymer was dissolved in acetone and centrifuged to spin down the protein. The remaining protein pellet was washed three times with acetone and then air-dried. The final protein pellet was analyzed as in Analysis of the Protein Extracted from PLGA Implants. The protein remaining in PLGA implants after release in PBST at 37° C. for 28 days was also extracted similarly and analyzed as above.
The BSA pellet extracted from PLGA implants was first reconstituted in PBST and incubated at 37° C. overnight to determine the soluble protein fraction remaining in the polymer. Any remaining aggregates were collected by centrifugation again, and brought up in the denaturing solvent (PBST/6 M urea/1 mM EDTA) and incubated at 37° C. for 30 mm to dissolve non-covalent bonded BSA aggregates. Then, any final undissolved BSA aggregates were collected again and dissolved in the reducing solvent (the denaturing solvent plus 10 mM DTT) to dissolve any disulfide-bonded aggregates.
For quantitation of soluble BSA, a modified Bradford assay was used as follows: 10 μl of standard or sample in PBST was added to 250 μl of Coomassle reagent/well on a 96-well plate and then the plate was read at 595 nm using a Dynex MRX microplate reader (Dynex Technology, Inc., Chantilly, Va.). The concentration range of the standard curve was 50 to 1000 μg/ml. For quantitation of non-covalent and covalent BSA aggregates, the solvents used for preparation of standards and samples were 6 M urea and 6 M urea/10 mM DTT, respectively.
The solvent-extruded suspension was dried at room temperature (24 h) and then dried in a vacuum oven at 45° C. (24 h). For preparation of bFGF millicylinders, bFGF was combined with heparin, sucrose and BSA additives at a weight ratio (additive bFGF) of 1, 180, and 1000, respectively, in 0.5 mM EDTA and 10 mM sodium phosphate buffer (pH 7.4). The solution was lyophilized for 2 days at room temperature using a Labconco Freeze Dry System (Kansas City, Mo.) to a fine powder with 4% moisture (determined by a Karl Fisher Titrator (Model DL 18, Mettler-Toledo Inc., NJ)) and sieved before suspension in PLGA-acetone and extrusion. For preparation of […] millicylinders, solutions of BMP-2 combined with BSA or gum arabic (Sigma, St. Louis, Mo.) were similarly lyophilized and sieved. The millicylinders; were prepared in the same way as for BSA/PLGA millicylinders. […]

BSA [5] = target: T1, BSA; assay: BSA release and aggregation in W/O/W PLGA microspheres in PBST at 37° C.; type: physicochemical, bovine
BSA [6] = target: T1, BSA; assay: Simulation of BSA instability in the polymer microclimate; type: physicochemical, bovine; conditions: Simulated: lyophilized BSA at pH 2 under 86% R.H. at 37° C.
Protocol: Three experiments were designed to simulate the potential deleterious conditions in PLGA devices. […] At various times, the protein was reconstituted in PBST and examined for the type of aggregates as described above. To examine the effect of water, water was directly added to lyophilized BSA at pH 2, sealed and then incubated at 37° C. for 1 week, and analyzed as above (16). […] Loss of BSA content from solution was used to determine the extent of BSA adsorption to the polymer.

tPA = tPA (Homo sapiens, UniProt P00750); assay: tPA release from PLGA millicylinders by activity analysis; type: physicochemical
Protocol: Here, by using this rationale, tPA was successfully encapsulated into PLGA implants. tPA, a protein with a MW of ˜60 K Da is a tissue type endogenous serine proteaese involved in thrombi dissolution. The FDA has approved the use of recombinant tPA in the treatment of myocardial infarction. Controlled release systems for local delivery was developed by using hydrogel to control wound healing. A multi-drug controlled release implant with tPA encapsulated was also tested for the intraocular management of proliferative vitroretinopahty (PVR). […] Arginine hydrochloride and BSA were added in the release medium to improve the stability of released tPA. The release profile and active residue of tPA after release was evaluated by activity analysis. […] As far as is known, only very few protein formulations have shown continuous and complete release over one month period without losing activity.

T1 sequence (P02769 25-607): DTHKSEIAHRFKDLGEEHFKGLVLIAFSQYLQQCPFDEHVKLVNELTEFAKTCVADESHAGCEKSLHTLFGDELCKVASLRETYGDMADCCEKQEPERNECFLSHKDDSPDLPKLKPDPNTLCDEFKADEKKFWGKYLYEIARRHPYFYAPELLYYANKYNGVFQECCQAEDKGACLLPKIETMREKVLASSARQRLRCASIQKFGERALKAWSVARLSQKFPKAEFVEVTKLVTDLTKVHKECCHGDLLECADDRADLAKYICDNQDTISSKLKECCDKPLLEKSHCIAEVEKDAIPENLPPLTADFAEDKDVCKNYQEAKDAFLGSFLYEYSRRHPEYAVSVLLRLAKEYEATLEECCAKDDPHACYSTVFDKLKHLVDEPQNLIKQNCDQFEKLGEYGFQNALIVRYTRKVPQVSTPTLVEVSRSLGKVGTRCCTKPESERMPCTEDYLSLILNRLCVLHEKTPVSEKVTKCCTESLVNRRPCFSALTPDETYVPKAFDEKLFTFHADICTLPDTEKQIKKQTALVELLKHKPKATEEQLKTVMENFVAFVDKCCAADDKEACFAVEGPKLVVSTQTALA
Sequence of tPA (P00750 36-562): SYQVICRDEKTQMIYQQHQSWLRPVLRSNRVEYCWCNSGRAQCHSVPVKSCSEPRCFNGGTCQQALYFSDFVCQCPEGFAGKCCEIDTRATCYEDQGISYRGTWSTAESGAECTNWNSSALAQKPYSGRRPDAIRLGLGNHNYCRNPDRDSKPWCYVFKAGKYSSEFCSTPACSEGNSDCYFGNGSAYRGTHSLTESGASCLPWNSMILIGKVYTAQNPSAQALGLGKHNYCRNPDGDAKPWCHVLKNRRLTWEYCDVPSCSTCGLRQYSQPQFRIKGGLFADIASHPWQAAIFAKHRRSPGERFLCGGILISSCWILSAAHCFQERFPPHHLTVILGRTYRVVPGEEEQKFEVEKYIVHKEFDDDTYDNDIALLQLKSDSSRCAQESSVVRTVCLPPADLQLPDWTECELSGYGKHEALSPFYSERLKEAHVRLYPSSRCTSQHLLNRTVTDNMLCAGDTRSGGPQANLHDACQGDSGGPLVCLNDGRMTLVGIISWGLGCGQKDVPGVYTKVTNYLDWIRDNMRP

For CC[C@]1(O)C[C@@H]2CN(CCc3c([nH]c4ccccc34)[C@@](C(=O)OC)(c3cc4c(cc3OC)N(C)[C@H]3[C@@](O)(C(=O)OC)[C@H](OC(C)=O)[C@]5(CC)C=CCN6CC[C@]43[C@@H]65)C2)C1 [VBL, vinblastine sulfate], the “stability of encapsulated drug” value ([1]; PLGA (50% D,L lactide content) microspheres) was “highly stabilized”.

For [OH-].[OH-].[Zn+2] [Zn(OH)2], the “pH of saturated solution” value [2] was 8.85 and the “pH after addition of 100 μl of 1 N HCl” value [3] was 5.86.

For O=P([O-])([O-])[O-].O=P([O-])([O-])[O-].[Zn+2].[Zn+2].[Zn+2] [Zn3(PO4)2], the “pH of saturated solution” value [2] was 6.82 and the “pH after addition of 100 μl of 1 N HCl” value [3] was 1.53.

For O=C([O-])[O-].[Zn+2] [ZnCO3], the “pH of saturated solution” value [2] was 7.34, the “pH after addition of 100 μl of 1 N HCl” value [3] was 5.36 and the “drug degraded to the basic product during microsphere preparation” value ([1]; VCR PLGA microspheres with co-encapsulated base) was 3%.

In the case of O=C([O-])[O-].[Mg+2] [MgCO3], the “stabilization of BSA” value (BSA [4]; PLGA millicylinders) is reported as “stabilized BSA much better than the Mg(OH)2”, the “pH of saturated solution” value [2] is reported as 9.75 and the “pH after addition of 100 μl of 1 N HCl” value [3] is reported as 9.01. The Released (BSA [5]; 3% BSA/PLGA50/50 (0.20 dl/g) microspheres, 51-day release in PBST at 37° C.) was “more than 50%”, the “BSA release after the first day burst over 28 days” value (BSA [5]; 4% BSA/PLGA50/50 (0.64 dl/g) W/O/W microspheres with basic salt) was “up to 10%” and the burst (BSA [5]; BSA/PLGA (0.20 dl/g) microspheres, data not shown) was 32%.

In the case of O=P([O-])([O-])[O-].O=P([O-])([O-])[O-].[Ca+2].[Ca+2].[Ca+2] [Ca3(PO4)2], the “pH of saturated solution” value [2] is reported as 7.77 and the “pH after addition of 100 μl of 1 N HCl” value [3] is reported as 3.71.

With O=C([O-])[O-].[Ca+2] [CaCO3] the “pH of saturated solution” value [2] was 9.26 and the “pH after addition of 100 μl of 1 N HCl” value [3] was 6.07.

With [Ca+2].[OH-].[OH-] [Ca(OH)2] the “pH of saturated solution” value [2] was 12.4 and the “pH after addition of 100 μl of 1 N HCl” value [3] was 12.20.

For Bovine serum albumin [BSA], the “Time to 50% aggregation” value (BSA [6]) was 7 days, the “Aggregates soluble in denaturing solvent” value (BSA [6]; PBST with 6M urea, 1 mM EDTA) was greater than 94% and the Peptide fragmentation (BSA [6]; SDS-PAGE) was 25, 40, and 55 kDa. For the same compound, the “initially encapsulated BSA that formed non-covalent aggregates” value (BSA [4]; 15% BSA/PLGA implants without base, 2 weeks release in PBST at 37° C., previous results) was “more than 60%”, the “Aggregates soluble in denaturing solvent” value (BSA [4]; Encapsulated: 15% BSA in PLGA millicylinders in PBST at 37° C., PBST with 6M urea, 1 mM EDTA) was greater than 98% and the Peptide fragmentation (BSA [4]; Encapsulated: 15% BSA in PLGA millicylinders in PBST at 37° C., SDS-PAGE) was 25, 40, and 55 kDa. The “Time to 50% aggregation” value (BSA [4]; Encapsulated: 15% BSA in PLGA millicylinders incubated in PBST at 37° C.) was 12 days, the “protein released in 1 day” value (BSA [4]; PLGA millicylinders, 20% BSA loading without the base) was greater than 90% and the non-covalent aggregates (BSA [5]; BSA in PLGA microspheres by solvent evaporation, no base) was 25-75%. For the same compound, the disulfide-bonded aggregates (BSA [5]; BSA in PLGA microspheres, some control experiments) was less than 5%.

With “tPA: tissue type endogenous serine protease, encapsulated as 10% tPA powder in PLGA millicylinders” the “one month release of tPA” value (tPA; 10% tPA powder in PLGA millicylinders with 3% Mg(OH)2) was 98.0±0.2% and the “one month release of tPA” value (tPA; 10% tPA powder in PLGA millicylinders without Mg(OH)2) was 77.1±2.6%.
